Marks after values point to notes of the source that are not given here.
How the values were obtained:
[1] = tested on: normal human epidermal keratinocytes; assay: Number of cells, methylene blue (Experiment 6); type: cell-based; details: for Number of cells (%): control = 100%
Protocol: The number of proliferated cells was determined with methylene blue and regarded as 100% for use in calculating the variation of cells with any one of the test substances.

[2] = tested on: endothelin-1; assay: Endothelin-1 production after ultraviolet B irradiation, ELISA (Experiment 6); type: cell-based, human; details: for Production level of endothelin-1 (%): ultraviolet B 40 mJ/cm^2, control = 100%
Protocol: Normal human epidermal keratinocytes were proliferated to a confluent state at which the cells were grown over the entire bottom edge of each well of 96-well microplates by using “EpiLife”, a product name of a culture medium containing a growth factor for keratinocytes, commercialized by Life Technologies Corporation, CA, USA, and further cultured for another two days while replacing the medium with a fresh culture medium free of such a growth factor. Thereafter, the resulting cultures were added with sodium adenosine N1-oxide 5′-phosphate to give a concentration of 10, 20, or 50 μM, and allowed to stand for six hours. The cultured cells were washed with Hanks buffer, irradiated with ultraviolet B radiation at an intensity of 40 mJ/cm^2, and further cultured for 24 hours after the addition of a culture medium containing the growth factor. Endothelin-1 in the resulting supernatants was detected with an endothelin-1 specific ELISA kit, commercialized by R&D Systems Inc., MN, USA, colored with tetramethylbenzidine, and measured for absorbance at a wavelength of 450 nm. A control system was provided and similarly treated as above except for not adding sodium adenosine N1-oxide 5′-phosphate and then determined for the production level of endothelin-1 in the resulting culture supernatant to be regarded as 100%. The production level of endothelin-1 for each test substance was comparatively evaluated based on the following equation. Equation: Production level of endothelin-1 (relative value (%))=[(Absorbance of a sample with a test substance)/(Absorbance of control)]×100 The experiment was repeated three times, and the data was compared to that of control with the Dunnett's multiple comparisons test. The symbol “*” means a level of significance of p<0.01.

[3] = tested on: filaggrin protein; assay: Expression of filaggrin protein, Western blot filaggrin/actin (Experiment 3); type: cell-based, human; details: control = 100%
Protocol: Then, the expression of filaggrin was induced in such a manner of further culturing the cells for another four days, while replacing the culture medium with an EpiLife medium supplemented with 2 μM, 5 μM, or 10 μM of sodium adenosine N1-oxide 5′-phosphate every three days. […] After four days culture, the resultant cells were washed with Dulbecco's phosphate buffered saline, added with 0.1 mL of an SDS sample buffer (pH 6.8) containing 62.5 mM Tris-HCl, 2% SDS, 10% glycerol, and 50 mM DTT along with a protease inhibitor, and collected with a cell scraper. The collected cells were boiled for 10 min, disrupted ultrasonically, and quantified with “Pierce BCA Protein Assay Kit”, commercialized by ThermoFisher Scientific K. K., Yokohama, Japan. A prescribed amount of the resulting disrupted cells was sampled and subjected to SDS-polyacrylamide gel electrophoresis in an amount of 100 μg/lane, and the resulting gel was transferred to a PVDF membrane. The resulting transferred PVDF membrane was blocked with “Block Ace”, commercialized by DS Pharma Biomedical Co., Ltd., Osaka, Japan, reacted with a 200-fold dilution of “AKH1”, a mouse anti-filaggrin antibody, commercialized by, Santa Cruz Biotechnology Inc., CA, USA, or a 20,000-fold dilution of “MAB1501”, a mouse actin antibody, commercialized by Chemicon International Inc., MA, USA, as a first antibody, and then reacted with a 2,000-fold dilution of “P0447”, an HRP-labeled anti-mouse immunoglobulin, commercialized by Dako Japan, Tokyo, Japan, as a secondary antibody. After the reaction, by using ECL Plus Western Blotting Detection System, commercialized by GE Healthcare Japan, Tokyo, Japan, bands were detected on “Hyperfilm ECL”, a chemiluminescent film commercialized by GE Healthcare Japan, Tokyo, Japan. The detected bands were analyzed and quantified with “Image J”, an image analyzing software. A control system with no addition of any of the test substances was provided and the increasing intensity ratio of a band of filaggrin/actin was regarded as 100%, with which data for the increased percentages of the intensity ratios of bands of filaggrin/actin of the test substances were comparatively evaluated.

For Nc1c2ncn([C@@H]3O[C@H](COP(=O)([O-])O)[C@@H](O)[C@H]3O)c2nc[n+]1[O-].[Na+] [Sodium adenosine N1-oxide 5′-phosphate, sodium adenosine N1-oxide 5′-phosphate], the “Number of cells (%)” value ([1]; 10 μM) was 111.4%, the “Number of cells (%)” value ([1]; 20 μM) was 103.6% and the “Number of cells (%)” value ([1]; 50 μM) was 100.6%. For the same compound, the “influence on cell proliferation” value ([1]; 10 to 50 μM) was “No influence on cell proliferation”, the “Production level of endothelin-1 (%)” value ([2]; 10 μM) was 104.5% and the “Production level of endothelin-1 (%)” value ([2]; 20 μM) was 87.9%. The “production level of endothelin-1 reduced by” value ([2]; 50 μM, compared to control) was “about 50%”, the “Production level of endothelin-1 (%)” value ([2]; 50 μM) was 49.9* % and the “Relative expression level of filaggrin protein (%)” value (shortened to “Relative expression level … (%)”) ([3]; 2 μM) was 133%. The “Relative expression level … (%)” value ([3]; 5 μM) was 206% and the “Relative expression level … (%)” value ([3]; 10 μM) was 308%.
